{"source": "patent US20020013478A1", "about": "“Calanolide analogues and methods of their use” (Sarawak Medichem Pharmaceuticals,Inc., priority 1994, published 2002)", "key": {"[1]": {"system": "2.2.15 cells", "assay": "Toxicity in 2.2.15 cells, neutral red dye uptake", "format": "cell-based, human", "conditions": "Table II; read-out: HBV IC50", "method": "Cells of 2.2.15 were grown to confluence in 96-well flat-bottomed tissue culture plates and treated with compounds (in 0.2 mL culture medium/well) as described above. Four concentrations of each compound were assayed, each in triplicate cultures, in 3- to 10-fold steps. Untreated control cultures were maintained on each 96-well plate. On each 96-well plate, wells containing no cells were used to correct for light scattering."}, "[2]": {"system": "HCMV", "assay": "HCMV semi-automated CPE-inhibition assay in human foreskin fibroblast cells", "format": "cell-based, human cytomegalovirus", "conditions": "Table II"}, "[3]": {"system": "human foreskin fibroblast cells", "assay": "Toxicity run with the HCMV assay, human foreskin fibroblast cells", "format": "cell-based", "conditions": "Table II", "summary_of_the_method": "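Human foreskin fibroblasts exposed to drug at 37 °C in CO2, either 72 h followed by Coulter Counter counts (triplicate counts, three replicate wells), or seven days followed by dye staining for 1 h and optical density at 550 nm.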"}, "[4]": {"system": "VZV", "assay": "VZV plaque reduction assay in human foreskin fibroblast cells", "format": "cell-based, varicella zoster virus", "conditions": "Table II", "method": "Two days prior to use, HFF cells are plated into six-well plates and incubated at 37° C. with 5% CO2 and 90% humidity. On the date of assay, the drug is made up at twice the desired concentration in 2x MEM and then serially diluted 1:5 in 2x MEM using six concentrations of drug. The initial starting concentration is usually 200 gg/mL down to 0.06 μg/mL. The virus to be used is diluted in MEM containing 10% FBS to a desired concentration which will give 20-30 plaques per well. The media is then aspirated from the wells and 0.2 mL of virus is added to each well in duplicate with 0.2 mL of media being added to drug toxicity wells. The plates are then incubated for one hour with shaking every fifteen minutes. After the incubation period, an equal amount of 1% agarose was added to an equal volume of each drug dilution. This will give final drug concentrations beginning with 100 μg/mL and ending with 0.03 μg/mL and a final agarose overlay concentration of 0.5%. The drug agarose mixture is applied to each well in 2 mL volume and the plates then incubated for three days, after which the cells were stained with a 1.5% solution of neutral red. At the end of 4-6hr incubation period, the stain is aspirated, and plaques counted using a stereomicroscope at lOx magnification.\nThe procedure is essentially the same as for the HSV plaque assay described above with two exceptions:\n1. After addition of the drug, the plates are incubated for ten days.\n2. On days three and six, an additional 1 mL overlay with equal amounts of 2x MEM and 1% agarose are added."}, "[5]": {"system": "human foreskin fibroblast cells", "assay": "Toxicity run with the VZV assay, human foreskin fibroblast cells", "format": "cell-based", "conditions": "Table II", "method": "[table] […] The media from the wells is then aspirated and 2 mL of each drug concentration is then added to each well. The cells are then incubated in a CO2 incubator at 37° C. for 72 h. At the end of this time, the media-drug solution is removed and the cells washed. […] The cell-media mixture is then pipetted up and down vigorously to break up the cell suspension, and 0.2 mL of the mixture is added to 9.8 mL of Isoton III and counted using a Coulter Counter. Each sample is counted three times with three replicate wells per sample. The procedure for plating cells and adding drug is the same as for the MTT Assay. After drug addition, the plates are incubated for seven days in a CO2 incubator at 37° C. […] This is incubated in the CO2 incubator for one hour. The dye is aspirated and the cells are washed using a Nunc Plate Washer. […] The plates are rotated for 15 minutes and the optical densities are read at 550 nm on a plate reader."}, "[6]": {"system": "measles", "assay": "Measles virus inhibition of viral CPE in BSC-1 cells", "format": "cell-based", "conditions": "Table II footnote g"}, "[7]": {"system": "HCMV isolates Towne, AD169, E. Mann, Coffman, C9208", "assay": "Anti-CMV plaque reduction assay against various laboratory and clinical isolates (Example 40)", "format": "cell-based, human cytomegalovirus", "method": "On the date of assay, the drug is made up at twice the desired concentration in 2x MEM and then serially diluted 1:5 in 2x MEM using six concentrations of drug. The initial starting concentration is usually 200 gg/mL down to 0.06 μg/mL. […] The media is then aspirated from the wells and 0.2 mL of virus is added to each well in duplicate with 0.2 mL of media being added to drug toxicity wells. The plates are then incubated for one hour with shaking every fifteen minutes. […] This will give final drug concentrations beginning with 100 μg/mL and ending with 0.03 μg/mL and a final agarose overlay concentration of 0.5%. The drug agarose mixture is applied to each well in 2 mL volume and the plates then incubated for three days, after which the cells were stained with a 1.5% solution of neutral red. At the end of 4-6hr incubation period, the stain is aspirated, and plaques counted using a stereomicroscope at lOx magnification. The procedure again is nearly the same as for HSV with a few minor changes. […] The assay is incubated for 14 days with the additional 1 mL overlays being applied on days four and eight. The procedure for the liquid overlay plaque assay is similar to that using the agarose overlay. The procedure for adding the virus is the same as for the regular plaque assay. The drugs are made up in a concentration to be used in MEM with 2% FBS. The drugs are not made up at 2x concentration as in the previous assays but are made up at the desired concentration. For HSV-1 and HSV-2 assays, an antibody preparation obtained from Baxter Health Care Corporation is diluted 1:500 and added to the media that the drug is diluted in. For CMV and VZV, no antibody in the overlay is utilized. For the CMV assay, additional medium without new drug is added on day five and allowed to incubate for a total of 10 days. For VZV, additional medium is added on day five and incubated for a total of 10 days. At the end of the incubation period for all of the assays, 2 mL of 1:10 dilution of stock neutral is added to each well incubated for six hours. The liquid is then aspirated off and plaques enumerated using a stereomicroscope. Five calanolide analogues, prepared as described above, were further evaluated for their anti-HCMV activity in plaque reduction assay against various laboratory and clinical isolates (Towne, AD 169, E. Mann, Coffinan, and […])."}, "[8]": {"system": "human foreskin fibroblast cells", "assay": "Cell viability in the CMV plaque reduction assay (MTC)", "format": "cell-based", "excerpt": "Five calanolide analogues, prepared as described above, were further evaluated for their anti-HCMV activity in plaque reduction assay against various laboratory and clinical isolates (Towne, AD 169, E. Mann, Coffinan, and C9208)."}, "[9]": {"system": "Human lung carcinoma (A549) cells", "assay": "Cytotoxicity run with the adenovirus assay", "conditions": "read-out: Others IC50, against adenovirus type-1; Table II footnote h"}, "[10]": {"system": "HBV", "assay": "HBV replication in cultures of 2.2.15 cells, extracellular HBV virion DNA (primary assay)", "conditions": "read-out: HBV EC50; Table II", "description": "Both intracellular and extracellular HBV DNA are analyzed in order to (i) allow for verification of compound efficacy and (ii) provide possible data on the target site in the HBV replication pathway for the compound from examination of the pattern of viral replicative forms. The culture medium is changed daily during the treatment period to (i) prevent the buildup of potentially toxic metabolites derived from test compounds and (ii) provide an analysis of HBV virion production during discrete 24-hour intervals which enables a quantitative comparison of any effect on virion production.\nThe analysis of HBV DNA is performed using blot hybridization techniques (Southern and slot blot) and [^32P]-labeled HBV-specific probes. HBV DNA levels are measured by comparison to known amounts of HBV DNA standards applied to every nitrocellulose membrane (gel or slot blot). An AMBIS beta scanner, which measures the radioactive decay of the hybridized probes directly from the nitrocellulose membranes, is used for the quantitative analysis. Standard curves, generated by multiple analyses, are used to correlate CPM measurements made by the beta scanner with relative levels of target HBV DNA. The levels of HBV virion DNA released into the culture medium are analyzed by a slot blot hybridization procedure."}, "[11]": {"system": "EBV", "assay": "EBV assay: superinfection of Raji or Daudi cells with P3HR-1, immunofluorescence for EA and VCA", "format": "cell-based, Epstein-Barr virus", "conditions": "Table II", "excerpt": "There are two prototypes of infectious EBV. One is exemplified by the virus derived from supernatant fluids of the P3HR-1cell line. This cell line produces nontransforming virus that causes the production of early antigen (EA) after primary infection or superinfection of B cell lines. The other prototype is exemplified by the B-95-8 virus. This virus immortalized cord blood lymphocytes and induced tumors in marmosets.\nThe virus used in our assays is P3HR-1.\nRamos is an exceptional B cell line derived from Burkitt's lymphoma tumor but containing no detectable EBV genome copies and is EBNA negative. Ramos/AW was obtained by in vitro infection of Ramos with the P3HR-1 virus and contains one resident EBV genome copy/cell. Raji is a Burkitt's lymphoma cell line containing 60 EBV genomes/cell, and will be the primary cell used for screening antiviral activity against EBV EA expression. Daudi is a low level producer that contains 152 EBV genome copies/cell. It spontaneously expresses EBV EA in 0.25%-0.5% of the cells. It will be used in follow-up studies to confirm activity. These cell lines respond to superinfection by EBV by expressing EA(D), EA(R), and VCA. All cell lines are maintained in RPMI-1640 medium supplemented by 10% FCS, L-glutamine and 100 μg/mL gentamicin. The cultures are fed twice weekly and the cell concentration adjusted to 3×10^5/mL. The cells are kept at 37° C. in a humidified atmosphere with 5% CO2.\nCells are infected with the P3HR-1 strain of EBV and the drugs to be tested are added after adsorption (45 minutes at 37° C.) and washing of the cell cultures. The cultures are incubated for two days in complete medium to allow viral gene expression. Following the 48 hr incubation period, the number of cells of each sample are counted and smears made. Monoclonal antibodies to the different EA components and VCA are then added to the cells incubated and washed. This is followed by a fluorescein conjugated rabbit anti-mouse Ig antibody; and the number of fluorescence positive cells in the smears are counted. The total number of cells in the cultures positive for EA or VCA are then calculated and compared."}, "[12]": {"system": "Raji or Daudi cells", "assay": "Toxicity run with the EBV assay", "format": "cell-based, human", "conditions": "Table II", "excerpt": "IC50 (50% inhibitory concentration) is the concentration required to inhibit cell proliferation by 50%"}, "[13]": {"system": "influenza A(H1N1)", "assay": "Influenza A inhibition of viral CPE in MDCK cells", "format": "cell-based, influenza A virus", "conditions": "Table II footnote i; read-out: Others EC50, against influenza A(H1N1)"}, "[14]": {"system": "Madin Darby canine kidney (MDCK) cells", "assay": "Cytotoxicity run with the influenza assay", "format": "cell-based", "conditions": "Table II footnote i; read-out: Others IC50, against influenza A(H1N1)", "method": "Virus strains: A/Texas/36191 (H1N1) (Source: Center for Disease Control and Prevention [CDC]), A/Beijing/2/92 (H3N2) (Source: CDC), B/Panama/45/90 (Source: CDC), A/NWS/33 (H1N1) (Source: American Type Culture Collection [ATCC]). (All but A/NWS/33 are tested in the presence of trypsin). Cell lines: Madin Darby canine kidney (MDCK) cells."}}, "data": [{"smiles": "CCCc1cc(=O)oc2c3c(c4c(c12)OC(C)(C)CC4)OC(C)C(C)C3O", "note": "(single isomer, unassigned; (-)) [(−)-23]", "values": [{"measurement": "IC50", "setting": "[1]", "result": 340, "unit": "µM"}, {"measurement": "HCMV EC50", "setting": "[2]", "result": ">4.0", "unit": "µg/mL"}, {"measurement": "HCMV IC50", "setting": "[3]", "result": 18.8, "unit": "µg/mL"}, {"measurement": "VZV EC50", "setting": "[4]", "result": ">4.0", "unit": "µg/mL"}, {"measurement": "VZV IC50", "setting": "[5]", "result": 16.0, "unit": "µg/mL"}, {"measurement": "Others EC50, against measles", "setting": "[6]", "result": "20^g μM"}, {"measurement": "EC50", "setting": "[7]; isolate AD169", "result": 3.16, "unit": "µM"}, {"measurement": "EC50", "setting": "[7]; isolate C9208", "result": 2.99, "unit": "µM"}, {"measurement": "EC50", "setting": "[7]; isolate Coffman", "result": 3.16, "unit": "µM"}, {"measurement": "EC50", "setting": "[7]; isolate E. Mann", "result": 3.16, "unit": "µM"}, {"measurement": "EC50", "setting": "[7]; isolate Towne", "result": 3.16, "unit": "µM"}, {"measurement": "MTC (minimum drug concentration that reduced cell viability by 25%)", "setting": "[8]; isolate AD169", "result": 10, "unit": "µM"}, {"measurement": "MTC (minimum drug concentration that reduced cell viability by 25%)", "setting": "[8]; isolate C9208", "result": 10, "unit": "µM"}, {"measurement": "MTC (minimum drug concentration that reduced cell viability by 25%)", "setting": "[8]; isolate Coffman", "result": "<100", "unit": "µM"}, {"measurement": "MTC (minimum drug concentration that reduced cell viability by 25%)", "setting": "[8]; isolate E. Mann", "result": 10, "unit": "µM"}, {"measurement": "MTC (minimum drug concentration that reduced cell viability by 25%)", "setting": "[8]; isolate Towne", "result": 10, "unit": "µM"}, {"measurement": "IC50", "setting": "[9]", "result": "> 100", "unit": "µM"}, {"measurement": "EC50", "setting": "[10]", "result": 3.5, "unit": "µM"}]}, {"smiles": "CC1Oc2c3c(c4c(-c5ccccc5)cc(=O)oc4c2C(O)C1C)OC(C)(C)C=C3", "note": "(single isomer, unassigned; (-)) [(−)-24]", "values": [{"measurement": "IC50", "setting": "[1]", "result": 151, "unit": "µM"}, {"measurement": "HCMV EC50", "setting": "[2]", "result": ">4.0", "unit": "µg/mL"}, {"measurement": "HCMV IC50", "setting": "[3]", "result": 14.4, "unit": "µg/mL"}, {"measurement": "EBV EC50", "setting": "[11]", "result": ">50", "unit": "µg/mL"}, {"measurement": "EBV IC50", "setting": "[12]", "result": ">50", "unit": "µg/mL"}, {"measurement": "VZV EC50", "setting": "[4]", "result": ">4.0", "unit": "µg/mL"}, {"measurement": "VZV IC50", "setting": "[5]", "result": 12.0, "unit": "µg/mL"}, {"measurement": "EC50", "setting": "[13]", "result": 57, "unit": "µM"}, {"measurement": "IC50", "setting": "[14]", "result": "> 100", "unit": "µM"}, {"measurement": "EC50", "setting": "[10]", "result": "> 10", "unit": "µM"}]}]}
